The test system of data set [1] is Pseudoperonospora cubensis (PSPECU). Briefly: Cucumber downy mildew foliar protectant test. Particulars: 200 ppm foliar, inoculated one day after treatment, read-out: Activity against fungal diseases PSPECU. Format: in vivo. Summed up:
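Cucumber seedlings, first true leaf 20-80% expanded, were sprayed to wetness with formulated compound and inoculated next day with aqueous sporangia suspension. Severity was converted to percent control versus untreated inoculated plants: ***=80-100%, **=50-79%, *=0-49%.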

For data set [2], the system named is Puccinia recondita tritici (PUCCRT). Kind of data set: Leaf rust of wheat foliar protectant test. Format: in vivo. Conditions: 200 ppm foliar, inoculated one day after treatment, read-out: Activity against fungal diseases PUCCRT. Summed up:
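Wheat seedlings (3–8 per pot) were sprayed to wet with formulated compound and inoculated the next day with an aqueous Puccinia recondita tritici spore suspension. Severity was converted to % control versus untreated inoculated plants and rated *** 80–100%, ** 50–79%, * 0–49%.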

For data set [3], the system named is Magnaporthe grisea = Pyricularia oryzae (PYRIOR). Kind of data set: whole plant or invertebrate. Format: in vivo. Particulars: foliar, read-out: Activity against fungal diseases PYRIOR.
Data set [4] concerns Septoria tritici (SEPTTR). Briefly: Septoria blotch of wheat foliar protectant test. The data set is classed as in vivo. Conditions: Zymoseptoria tritici, read-out: Activity against fungal diseases SEPTTR; for pest or weed control at 200 ppm: 200 ppm foliar, inoculated one day after treatment; for pest or weed control at 25 ppm: foliar, Tested at 25 ppm (footnote b). Summed up: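 Wheat seedlings (3-10 per pot) were sprayed to wet with formulated compound and inoculated next day with Septoria tritici spores. Plants then had 1 day in a dark dew chamber and 3 days in a lighted one before greenhouse incubation. Severity versus untreated inoculated plants gave percent control, scored *** 80-100%, ** 50-79%, * 0-49%.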

The test system of data set [5] is Colorado Potato Beetle (Leptinotarsa decemlineata, LPTNDE). Kind of data set: Colorado Potato Beetle larvae on sprayed tomato leaves. Format: in vivo. Particulars: foliar, 72 h, L2 larvae on sprayed tomato foliage, mortality after three days. On the procedure: Formulated test compounds were diluted and sprayed onto leaves of tomato plants. When dry, plant foliage was removed from the plant and placed in 8-well agar trays. Five L2 Colorado potato beetle larvae were placed in each well, and the trays were sealed and incubated at 26° C. Mortality was evaluated after three days.

A further data set relates to Caenorhabditis elegans. Conditions: 10 micrograms per milliliter agar, 24 h at 20° C.

≈ marks a conversion by molar mass, not a printed value.

Method for Caenorhabditis elegans: The activity of the compounds against Caenorhabditis elegans was determined by dissolving compounds in DMSO, then applying them to petri dishes containing Nematode Growth Medium agar to a final concentration of 10 μg compound per milliliter agar. Escherichia coli bacteria were grown on the plates to provide a food source for the larvae of Caenorhabditis elegans. The bacteria were heat-killed at 65° C. before compounds were added to the plates.
The plates with compound and heat-killed bacteria were infested with 10 microliter drops containing eggs from wild-type Caenorhabditis elegans worms. Adult worms were dissolved in KOH and bleach and washed in Ringers solution to generate the egg suspension. Each compound was screened with approximately 400 eggs, divided between two petri dishes. Egg hatching was evaluated after 24 h at 20° C. Mortality was averaged over the two plates.

Turning to `Fc1ccc(F)c2c(NCCc3ccc(Oc4ccc(C(F)(F)F)cn4)cc3)ncnc12` [Compound 1], the pest or weed control at 200 ppm in data set [1], in data set [2], in data set [3] and in data set [4] was 80 to 100% each time. The compound further came in with an LC90 in data set [5] of 0.49 µg/mL (≈ 1.1 µM).
As to `Fc1ccc(F)c2c(NCCc3ccc(Oc4nccc(C(F)(F)F)n4)cc3)ncnc12` [Compound 3], the pest or weed control at 200 ppm in data set [1] fell in the range of 80 to 100%; in data set [2] it was 80 to 100%; in data set [3], 50 to 79%; in data set [4], 80 to 100%. In addition, the Percent mortality in the data set on Caenorhabditis elegans amounted to 100%.
For `COc1ccc(CCNc2ncnc3c(F)ccc(F)c23)c(C)c1` [Compound 42], the pest or weed control at 200 ppm in data set [1], in data set [2], in data set [3] and in data set [4] was 80 to 100% throughout. In the data set with Caenorhabditis elegans, this compound came in with a Percent mortality of 6%.
With `Fc1cc(F)c2ncnc(NCCc3ccc(Oc4ccc(C(F)(F)F)cn4)cc3)c2c1F` [Compound 74], the pest or weed control at 200 ppm in data set [1], in data set [2], in data set [3] and in data set [4] was 80 to 100% in each case. Further, in data set [5], the LC90 came to 1 µg/mL (≈ 2.15 µM).
With `Fc1cc(Oc2cc(C(F)(F)F)ccn2)ccc1CCNc1ncnc2c(F)ccc(F)c12` [Compound 76], the pest or weed control at 200 ppm in data set [1], in data set [2], in data set [3] and in data set [4] was 80 to 100% each time. Further, the Percent mortality with Caenorhabditis elegans is 100%.
With `Fc1cc(F)c2ncnc(NCCc3ccc(Oc4cnccc4C(F)(F)F)c(Cl)c3)c2c1F` [Compound 93], the pest or weed control at 200 ppm in data set [2], in data set [3] and in data set [4] was 80 to 100% in each case. The Percent mortality with Caenorhabditis elegans was determined as 100%.
Take `Oc1ccc2c(c1)CC(Nc1ncnc3c(F)ccc(F)c13)C2` (centres unmarked) [Compound 106]: the pest or weed control at 200 ppm in data set [1] was 50 to 79%; in data set [2], 50 to 79%; in data set [3] it was 50 to 79%; in data set [4], 0 to 49%.
Take `Fc1ccc(F)c2c(NCCc3ccc(Oc4ccnc(Cl)c4)cc3)ncnc12` [Compound 107]: the pest or weed control at 200 ppm in data set [1], in data set [2] and in data set [3] was 80 to 100% in each case. Moreover, the pest or weed control at 25 ppm in data set [4] lay within 80 to 100%.
For `COc1cc(CCNc2ncnc3c(F)ccc(F)c23)ccc1Oc1ccnc(Cl)c1` [Compound 108], the pest or weed control at 200 ppm lay within 0 to 49% in data set [1], 80 to 100% in data set [2], 0 to 49% in data set [3] and 80 to 100% in data set [4].
Consider `Fc1ccc(F)c2c(NC3Cc4ccc(Oc5cc(C(F)(F)F)ccn5)cc4C3)ncnc12` (centres unmarked) [Compound 110], for which the pest or weed control at 200 ppm in data set [1], in data set [2], in data set [3] and in data set [4] was 80 to 100% in each case.
In the case of `Fc1ccc(F)c2c(NC3Cc4ccc(Oc5ccc(C(F)(F)F)cn5)cc4C3)ncnc12` (centres unmarked) [Compound 111], the pest or weed control at 200 ppm in data set [1], in data set [2], in data set [3] and in data set [4] was 80 to 100% each time.
Turning to `COc1cc(CCNc2ncnc3c(F)ccc(F)c23)ccc1Oc1cc(C(F)(F)F)ncn1` [Compound 112], the pest or weed control at 200 ppm in data set [1], in data set [2] and in data set [3] was 80 to 100% each time. Further, in data set [4], the pest or weed control at 25 ppm lay in the range of 80 to 100%.
For `COc1cc(CCNc2ncnc3c(F)ccc(F)c23)ccc1Oc1ccnc(C(F)(F)F)n1` [Compound 113], the pest or weed control at 200 ppm in data set [1], in data set [2] and in data set [3] was 80 to 100% each time. In addition, the pest or weed control at 25 ppm in data set [4] is 80 to 100%.
For the compound `Fc1ccc(F)c2c(NCCc3ccc(Oc4ccnc(C(F)(F)F)n4)cc3)ncnc12` [Compound 114], the pest or weed control at 200 ppm in data set [1], in data set [2] and in data set [3] was 80 to 100% throughout. Besides, in data set [4], the pest or weed control at 25 ppm lay within 50 to 79%.
On to `[O-][n+]1ccc(C(F)(F)F)c(Oc2ccc(CCNc3ncnc4c(F)ccc(F)c34)cc2)c1` [Compound 115], for which the pest or weed control at 200 ppm in data set [1], in data set [2], in data set [3] and in data set [4] was 80 to 100% in each case. Also, the Percent mortality in the data set with Caenorhabditis elegans came to 100%.
On to `Fc1cc(Oc2cc(C(F)(F)F)ncn2)ccc1CCNc1ncnc2c(F)ccc(F)c12` [Compound 116], for which the pest or weed control at 200 ppm in data set [1], in data set [2] and in data set [3] was 80 to 100% throughout. Moreover, in data set [4], the pest or weed control at 25 ppm was 80 to 100%.
For the compound `Cc1cc(CCNc2ncnc3c(F)ccc(F)c23)ccc1Oc1cc(C(F)(F)F)ncn1` [Compound 117], the pest or weed control at 200 ppm in data set [1], in data set [2] and in data set [3] was 80 to 100% throughout. Moreover, the pest or weed control at 25 ppm in data set [4] lay in the range of 80 to 100%.
For the compound `Cc1cc(Oc2cc(C(F)(F)F)ncn2)ccc1CCNc1ncnc2c(F)ccc(F)c12` [Compound 118], the pest or weed control at 200 ppm in data set [1], in data set [2] and in data set [3] was 80 to 100% throughout. In addition, the pest or weed control at 25 ppm in data set [4] lay within 80 to 100%.
As for `CC(Nc1ncnc2c(F)ccc(F)c12)c1ccccc1` (centres unmarked) [Compound 119], the pest or weed control at 200 ppm in data set [1], in data set [2], in data set [3] and in data set [4] was 80 to 100% throughout.
With `Fc1cc(Oc2ncc(C(F)(F)F)cc2F)ccc1CCNc1ncnc2c(F)ccc(F)c12` [Compound 122], the pest or weed control at 200 ppm in data set [1] is 80 to 100%; in data set [2] it was 80 to 100%; in data set [3], 50 to 79%. In addition, in data set [4], the pest or weed control at 25 ppm lay within 80 to 100%.
Take `N#Cc1ccc(Oc2ccc(CCNc3ncnc4c(F)ccc(F)c34)cc2)nc1` [Compound 124]: the pest or weed control at 200 ppm in data set [1], in data set [2] and in data set [3] was 80 to 100% in each case. Moreover, the pest or weed control at 25 ppm in data set [4] is 50 to 79%. For the same compound, in data set [5], the LC90 lay within 3.1 to 12.5 µg/mL (≈ 7.68 to 31 µM).
For `N#Cc1cc(Oc2ccc(CCNc3ncnc4c(F)ccc(F)c34)cc2)ncc1Cl` [Compound 126], the pest or weed control at 200 ppm in data set [1], in data set [2] and in data set [3] was 80 to 100% in each case. Moreover, in data set [4], the pest or weed control at 25 ppm lay within 80 to 100%.
On to `Fc1ccc(F)c2c(NCCc3ccc(Oc4cc(Cl)ncn4)cc3)ncnc12` [Compound 127], for which the pest or weed control at 200 ppm in data set [1] was in the range of 80 to 100%; in data set [2] it was 80 to 100%; in data set [3], 80 to 100%; in data set [4], 0 to 49%.
For `N#Cc1c(Cl)cncc1Oc1ccc(CCNc2ncnc3c(F)ccc(F)c23)cc1` [Compound 129], the pest or weed control at 200 ppm in data set [1] was 80 to 100%; in data set [2], 80 to 100%; in data set [3], 80 to 100%; in data set [4], 50 to 79%.
Take `Fc1cc(CCNc2ncnc3c(F)ccc(F)c23)ccc1Oc1ccc(C(F)(F)F)cn1` [Compound 130]: the pest or weed control at 200 ppm in data set [1], in data set [2], in data set [3] and in data set [4] was 80 to 100% throughout.
Consider `Fc1cc(CCNc2ncnc3c(F)ccc(F)c23)ccc1Oc1ncc(C(F)(F)F)cc1F` [Compound 131], for which the pest or weed control at 200 ppm in data set [1], in data set [2], in data set [3] and in data set [4] was 80 to 100% in each case.
As for `Fc1cc(CCNc2ncnc3c(F)ccc(F)c23)ccc1Oc1cc(C(F)(F)F)ncn1` [Compound 132], the pest or weed control at 200 ppm in data set [1], in data set [2], in data set [3] and in data set [4] was 80 to 100% each time.
For the compound `Fc1cccc2c(NCCc3ccc(Oc4cc(C(F)(F)F)ccn4)cc3)ncnc12` [drawing 199, reference compound], in data set [5], the LC90 was in the range of 3.1 to 12.5 µg/mL (≈ 7.24 to 29.2 µM).
For the compound `Fc1cccc2c(NCCc3ccc(Oc4ccc(C(F)(F)F)cn4)cc3)ncnc12` [reference compound], in data set [5], the LC90 was determined as 0.12 µg/mL (≈ 0.28 µM).
As to `N#Cc1ccc(Oc2ccc(CCNc3ncnc4c(F)cccc34)cc2)nc1` [reference compound], the LC90 in data set [5] was < 3.1 µg/mL.
In the data set on Caenorhabditis elegans, ivermectin [reference compound] displayed a Percent mortality of 95%.

These data come from patent publication US9000162B2, “5,8-difluoro-4-(2-(4-(heteroaryloxy)-phenyl)ethylamino)quinazolines and their use as agrochemicals” (Dow AgroSciences LLC, priority 2008, dated 2015).
